This note sets out measurements from US20230002373A1, “COMPOUNDS AND COMPOSITIONS FOR TREATING CONDITIONS ASSOCIATED WITH STING ACTIVITY” (IFM Due, Inc., priority 2019, published 2023).

Broadly, the EC50 is the concentration needed to bring the measured effect to its halfway point. High values mean a less potent agent, low ones a more potent agent.

Structures are written as SMILES.

The target of one experiment is T1, hSTING (Homo sapiens, UniProt Q86WV6, G230A/H232R/R293Q/R71H).
T1 construct: host or cells: THP1-Dual KO-IFNAR2 cells
T1 sequence (Q86WV6 whole entry R71H/G230A/H232R/R293Q): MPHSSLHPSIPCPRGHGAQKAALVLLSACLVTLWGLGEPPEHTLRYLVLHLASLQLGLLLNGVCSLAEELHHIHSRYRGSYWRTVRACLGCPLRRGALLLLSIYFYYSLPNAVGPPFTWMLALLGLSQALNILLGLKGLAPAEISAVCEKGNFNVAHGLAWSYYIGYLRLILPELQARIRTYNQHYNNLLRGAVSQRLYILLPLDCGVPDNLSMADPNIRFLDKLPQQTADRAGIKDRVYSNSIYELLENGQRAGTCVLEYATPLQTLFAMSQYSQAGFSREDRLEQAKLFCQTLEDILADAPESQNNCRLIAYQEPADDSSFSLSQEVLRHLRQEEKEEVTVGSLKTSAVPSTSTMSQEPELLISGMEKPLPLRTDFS
The experiment in a line: STING reporter assay (luciferase) in THP1-Dual KO-IFNAR2 cells stimulated with 2′3′cGAMP. It is filed as cell-based. The settings on record: 15 μM 2′3′cGAMP, 24 h, class symbols. On the procedure: STING pathway activation by the compounds described herein was measured using THP1-Dual™ cells (KO-IFNAR2).
THP1-Dual™ KO-IFNAR2 Cells (obtained from invivogen) were maintained in RPMI, 10% FCS, 5 ml P/S, 2 mM L-glut, 10 mM Hepes, and 1 mM sodium pyruvate. Compounds were spotted in empty 384 well tissue culture plates (Greiner 781182) by Echo for a final concentration of 0.0017-100 μM. Cells were plated into the TC plates […], 2×10E6 cells/mL. For activation with STING ligand, 2′3′cGAMP (MW 718.38, obtained from Invivogen), was prepared in Optimem media.
The following solutions were prepared for each 1×384 plate: • Solution A: 2 mL Optimem with one of the following stimuli: • 60 μL of 10 mM 2′3′cGAMP->150 μM stock • Solution B: 2 mL Optimem with 60 μL Lipofectamine 2000->Incubate 5 min at RT
2 mL of solution A and 2 ml Solution B was mixed and incubated for 20 min at room temperature (RT). 20 uL of transfection solution (A+B) was added on top of the plated cells, with a final 2′3′cGAMP concentration of 15 μM. The plates were then centrifuged immediately at 340 g for 1 minute, after which they were incubated at 37° C., 5% CO2, >98% humidity for 24 h. Luciferase reporter activity was then measured. EC50 values were calculated by using standard methods known in the art.
Luciferase reporter assay: 10 μL of supernatant from the assay was transferred to white 384-plate with flat bottom and squared wells. One pouch of QUANTI-Luc™ Plus was dissolved in 25 mL of water. 100 μL of QLC Stabilizer per 25 mL of QUANTI-Luc™ Plus solution was added. 50 μL of QUANTI-Luc™ Plus/QLC solution per well was then added. Luminescence was measured on a Platereader (e.g., Spectramax I3X (Molecular Devices GF3637001)).
Luciferase reporter activity was then measured. EC50 values were calculated by using standard methods known in the art.
In turn, `O=C(NCc1ccc(OC(F)(F)F)c(Cl)c1)C(=O)Nc1c[nH]c2ccncc12` [Compound 211] yielded an EC50 of 0.2 to 1 µM.
On the same count and under the same terms, to `COc1ccc2[nH]cc(NC(=O)C(=O)NCc3ccc(C)c(C(F)(F)F)c3)c2n1` [Compound 215] belongs 0.2 to 1 µM; to `Cc1ccc(CNC(=O)C(=O)Nc2c[nH]c3cc(F)cnc23)cc1C(F)(F)F` [Compound 174], 0.2 to 1 µM; to `O=C(NCc1ccccc1C(F)(F)F)C(=O)Nc1c[nH]c2ccncc12` [Compound 172, N1-(1H-pyrrolo[3,2-c]pyridin-3-yl)-N2-(2-(trifluoromethyl)-benzyl)-oxalamide], 5 to 100 µM.
For the compound `O=C(Nc1ccc(C(F)(F)F)cn1)C(=O)Nc1c[nH]c2ccncc12` [Compound 113, N^1-(1H-pyrrolo[3,2-c]pyridin-3-yl)-N^2-(5-(trifluoromethyl)pyridin-2-yl)oxalamide], the concentration for a half-maximal effect (EC50) was 1 to 5 µM.
With `COc1ccc(CNC(=O)C(=O)Nc2c[nH]c3cccnc23)cc1C(F)(F)F` [Compound 144, N1-(4-methoxy-3-(trifluoromethyl)benzyl)-N2-(1H-pyrrolo[3,2-b]pyridin-3-yl)oxalamide], the EC50 fell in the range of 1 to 5 µM.
Compound `O=C(NCc1cccc(C(F)(F)F)c1F)C(=O)Nc1c[nH]c2ccncc12` [Compound 170, N1-(2-fluoro-3-(trifluoromethyl)-benzyl)-N2-(1H-pyrrolo[3,2-c]pyridin-3-yl)oxalamide] yielded an EC50 of 1 to 5 µM.
The compound `CC(NC(=O)C(=O)Nc1c[nH]c2cccnc12)c1ccc(C(F)(F)F)cc1` (stereo not drawn) [Compound 143, N1-(1H pyrrolo[3,2-b]pyridin-3-yl)-N2-(1-(4-(trifluoromethyl)phenyl)ethyl)oxalamide] registered an EC50 of 1 to 5 µM.
On the same count and under the same terms, the result for `O=C(Nc1c[nH]c2ccncc12)C(=O)NC1CCC2(CCCCC2)CC1` [Compound 121, N^1-(1H-pyrrolo[3,2-c]pyridin-3-yl)-N^2-(spiro[5.5]undecan-3-yl)oxalamide] reads 1 to 5 µM; that for `O=C(Nc1ccc(C2CCCCC2)nc1)C(=O)Nc1c[nH]c2ncc(F)cc12` [Compound 102, N^1-(6-cyclohexyl-pyridin-3-yl)-N^2-(5-fluoro-1H-pyrrolo[2,3-b]pyridin-3-yl)oxalamide], 1 to 5 µM; that for `Cc1ccc(CNC(=O)C(=O)Nc2c[nH]c3ccncc23)cc1C(F)(F)F` [Compound 119, N^1-(4-methyl-3-(trifluoromethyl)benzyl)-N^2-(1H-pyrrolo[3,2-c]pyridin-3-yl)oxalamide], 0.2 to 1 µM.
Same read-out and setting: to `Cc1c(CNC(=O)C(=O)Nc2c[nH]c3cccnc23)cccc1C(F)(F)F` [Compound 138, N1-(2-methyl-3-(trifluoromethyl)benzyl)-N2-(1H-pyrrolo[3,2-b]pyridin-3-yl)oxalamide] belongs 0.2 to 1 µM; to `O=C(NCC12CC3CC(CC(C3)C1)C2)C(=O)Nc1c[nH]c2ccncc12` [Compound 124, N^1-(adamantan-1-ylmethyl)-N^2-(1H-pyrrolo[3,2-c]pyridin-3-yl)oxalamide], 1 to 5 µM.
On the same count and under the same terms, the result for `O=C(Nc1cccc(C(F)(F)F)c1)C(=O)Nc1c[nH]c2ccncc12` [Compound 114, N^1-(1H-pyrrolo[3,2-c]pyridin-3-yl)-N^2-(3-(trifluoromethyl)phenyl)oxalamide] reads 1 to 5 µM.
On to `Cc1c(CNC(=O)C(=O)Nc2c[nH]c3ccncc23)cccc1C(F)(F)F` [Compound 142, N1-(2-methyl-3-(trifluoromethyl)-benzyl)-N2-(1H-pyrrolo[3,2-c]pyridin-3-yl)oxalamide], for which the 50% effective concentration (EC50) lay in the range of 0.2 to 1 µM.
For `CC(CNC(=O)C(=O)Nc1c[nH]c2cccnc12)Oc1ccc(C(F)(F)F)cc1` (stereo not drawn) [Compound 137, N1-(1H-pyrrolo[3,2-b]pyridin-3-yl)-N2-(2-(4-(trifluoromethyl)phenoxy)propyl)oxalamide], the EC50 lay in the range of 5 to 100 µM.
The compound `O=C(Nc1c[nH]c2ncc(F)cc12)C(=O)N[C@H]1CCCC2(CCCCC2)C1` (single isomer, unassigned) [Compound 196, N-[5-fluoro-1H-pyrrolo[2,3-b]pyridin-3-yl]-N′-[(2S or 2R)-spiro[5.5]undecan-2-yl]ethanediamide] displayed an EC50 of 1 to 5 µM.
`O=C(Nc1ccc(C2CCCCC2)cn1)C(=O)Nc1c[nH]c2ccc(Br)nc12` [Compound 210]: the EC50 was in the range of 0.2 to 1 µM.
As for `Cc1cc(F)c(Cl)cc1NC(=O)C(=O)Nc1c[nH]c2ccncc12` [Compound 162, N1-(5-chloro-4-fluoro-2-methylphenyl)-N2-(1H-pyrrolo[3,2-c]pyridin-3-yl)oxalamide], the EC50 is 1 to 5 µM.
`Cc1ccc(CNC(=O)C(=O)Nc2c[nH]c3ccc(-c4cnn(C)c4)nc23)cc1C(F)(F)F` [Compound 130] had an EC50 of 1 to 5 µM.
With `Cc1ccc(OCCNC(=O)C(=O)Nc2c[nH]c3ccncc23)cc1C` [Compound 157, N1-(2-(3,4-dimethylphenoxy)ethyl)-N2-(1H-pyrrolo[3,2-c]pyridin-3-yl)oxalamide], the EC50 fell in the range of 5 to 100 µM.
Still for that read-out and setting: the result for `O=C(NCc1ccc(Cl)cc1C(F)(F)F)C(=O)Nc1c[nH]c2cccnc12` [Compound 140, N1-(4-chloro-2-(trifluoromethyl)benzyl)-N2-(1H-pyrrolo[3,2-b]pyridin-3-yl)oxalamide] reads 1 to 5 µM; that for `COc1ccc(CNC(=O)C(=O)Nc2c[nH]c3ccncc23)cc1C(F)(F)F` [Compound 165, N1-(4-methoxy-3-(trifluoromethyl)-benzyl)-N2-(1H-pyrrolo[3,2-c]pyridin-3-yl)oxalamide], 0.2 to 1 µM; that for `O=C(NCc1ccc(F)c(OC(F)(F)F)c1)C(=O)Nc1c[nH]c2ccncc12` [Compound 148, N1-(4-fluoro-3-(trifluoromethoxy)-benzyl)-N2-(1H-pyrrolo[3,2-c]pyridin-3-yl)oxalamide], 0.2 to 1 µM.
The compound `O=C(NCc1cccc2c1OC(F)(F)O2)C(=O)Nc1c[nH]c2ccncc12` [Compound 158, N1-((2,2-difluorobenzo-[d][1,3]dioxol-4-yl)methyl)-N2-(1H-pyrrolo[3,2-c]pyridin-3-yl)oxalamide] registered an EC50 of 1 to 5 µM.
The same measure, in the same setting: the result for `COc1cc2c(NC(=O)C(=O)NCc3ccc(C)c(C(F)(F)F)c3)c[nH]c2cn1` [Compound 214] reads 1 to 5 µM; that for `O=C(Nc1c[nH]c2ncc(F)cc12)C(=O)N[C@@H]1CCC2(CCCCC2)C1` (single isomer, unassigned) [Compound 202], 5 to 100 µM.
In turn, `O=C(NCc1cccc(OC(F)(F)F)c1)C(=O)Nc1c[nH]c2ccncc12` [Compound 173, N1-(1H-pyrrolo[3,2-c]pyridin-3-yl)-N2-(3-(trifluoromethoxy)-benzyl)oxalamide] displayed an EC50 of 1 to 5 µM.
With `O=C(NCc1ccc(Cl)c(C(F)(F)F)c1)C(=O)Nc1c[nH]c2ccncc12` [Compound 171, N1-(4-chloro-3-(trifluoromethyl)-benzyl)-N2-(1H-pyrrolo[3,2-c]pyridin-3-yl)oxalamide], the EC50 fell in the range of 0.2 to 1 µM.
As to `O=C(NCC1CC2C=CC1C2)C(=O)Nc1c[nH]c2cccnc12` (stereo not drawn) [Compound 111, N^1-(bicyclo[2.2.1]hept-5-en-2-ylmethyl)-N^2-(1H-pyrrolo[3,2-b]pyridin-3-yl)oxalamide], the EC50 fell in the range of 5 to 100 µM.

The same experiment, now with this note: 15 μM 2′3′cGAMP, 24 h, numeric bounds.
Regarding `O=C(NCc1cccc(OC(F)(F)F)c1)C(=O)Nc1c[nH]c2cccnc12` [Compound 151, N1-(1H pyrrolo[3,2-b]pyridin-3-yl)-N2-(3-(trifluoro-methoxy)benzyl)oxalamide], the EC50 is greater than 30 µM.
Still for that read-out and setting: the result for `O=C(NCC1CCCC(F)(F)C1)C(=O)Nc1c[nH]c2ccncc12` (stereo not drawn) [Compound 146, N1-((3,3-difluorocyclohexyl)-methyl)-N2-(1H-pyrrolo[3,2-c]pyridin-3-yl)oxalamide] reads greater than 30 µM; that for `O=C(Nc1c[nH]c2cccnc12)C(=O)NC(c1ccc(F)cc1)C1CC1` (stereo not drawn) [Compound 135, N1-(cyclopropyl(4-fluorophenyl)methyl)-N2-(1H-pyrrolo[3,2-b]pyridin-3-yl)oxalamide], greater than 30 µM; that for `O=C(NCC1CCc2ccccc2O1)C(=O)Nc1c[nH]c2ccncc12` (stereo not drawn) [Compound 154, N1-(chroman-2-ylmethyl)-N2-(1H-pyrrolo[3,2-c]pyridin-3-yl)oxalamide], greater than 30 µM.
On to `O=C(NCC1CCc2ccccc2O1)C(=O)Nc1c[nH]c2cccnc12` (stereo not drawn) [Compound 132, N1-(chroman-2-ylmethyl)-N2-(1H-pyrrolo[3,2-b]pyridin-3-yl)oxalamide], for which the EC50 is greater than 30 µM.
Still for that read-out and setting: to `O=C(NCCc1ncc(C(F)(F)F)cc1Cl)C(=O)Nc1c[nH]c2cccnc12` [Compound 139, N1-(2-(3-chloro-5-(trifluoromethyl)pyridin-2-yl)ethyl)-N2-(1H-pyrrolo[3,2-b]pyridin-3-yl)oxalamide] belongs greater than 30 µM.
